Earlier results in US20210393932A1, “DERMAL PATCHES AND GLASS SWABS FOR APPLICATION OF TOPICAL IMMUNOSENSITIZERS” (Squarex, LLC, priority 2020, published 2021).

Tested on: common warts and alopecia areata
Details: solutions of 0.05% to 2.0% weight/volume, vehicle almost always acetone, applied repeatedly (Buckley et al., Lee et al.); cited from earlier work

| Structure (SMILES) | treatment of common warts and alopecia areata |
| --- | --- |
| O=c1c(-c2ccccc2)c1-c1ccccc1 [diphenylcyclopropenone] | used successfully |
| O=[N+]([O-])c1ccc(Cl)c([N+](=O)[O-])c1 [DNCB, 1-chloro-2,4-dinitrobenzene] | used successfully |
